The text below walks through data of article PMC12207802, “Discovery of coniferaldehyde as an inhibitor of caseinolytic protease to combat Staphylococcus aureus infections” (Molecular Medicine, 2025).

In the assay the target is T1, Caseinolytic protease P (ClpP) (Staphylococcus aureus, UniProt Q2G036).
T1 construct: clpP of S. aureus NCTC 8325-4 in pET-28a (+), Ni-purified
The experiment in a line: fluorogenic Suc-Leu-Tyr-AMC peptidase assay with purified ClpP; supported by fluorescence quenching (Ka), CETSA, CD and ClpXP GFP-SsrA degradation. Format: biochemical.

T1 sequence (Q2G036 whole entry): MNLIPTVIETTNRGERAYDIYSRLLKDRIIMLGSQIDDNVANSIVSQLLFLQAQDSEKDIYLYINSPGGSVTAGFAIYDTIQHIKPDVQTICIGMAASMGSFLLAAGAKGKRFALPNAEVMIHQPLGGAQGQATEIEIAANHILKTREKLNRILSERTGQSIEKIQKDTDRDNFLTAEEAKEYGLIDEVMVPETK

As usually defined, the IC50 is the concentration that inhibits the measured activity by half. A higher IC50 goes with lower potency. `COc1cc(/C=C/C=O)ccc1O` [CA, 4-hydroxy-3-methoxycinnamaldehyde] had a half-inhibitory concentration (IC50) of 103 µM.
